Source: ChEMBL document CHEMBL3132769, “Fragment growing to retain or alter the selectivity of anchored kinase hinge-binding fragments” (Medchemcomm, 2014)

Tests used:
[1] = biological target: Receptor-type tyrosine-protein kinase FLT3 (Homo sapiens) (UniProt P36888); assay: Inhibition of human FLT3 catalytic domain expressed in baculovirus assessed as substrate phosphorylation using fluorescence-labelled peptides as substrate at 0.06 uM after 90 mins by microfluidic peptide phosphorylation assay
Chain of Receptor-type tyrosine-protein kinase FLT3 (Homo sapiens) (P36888 whole entry, the tested form may be a part): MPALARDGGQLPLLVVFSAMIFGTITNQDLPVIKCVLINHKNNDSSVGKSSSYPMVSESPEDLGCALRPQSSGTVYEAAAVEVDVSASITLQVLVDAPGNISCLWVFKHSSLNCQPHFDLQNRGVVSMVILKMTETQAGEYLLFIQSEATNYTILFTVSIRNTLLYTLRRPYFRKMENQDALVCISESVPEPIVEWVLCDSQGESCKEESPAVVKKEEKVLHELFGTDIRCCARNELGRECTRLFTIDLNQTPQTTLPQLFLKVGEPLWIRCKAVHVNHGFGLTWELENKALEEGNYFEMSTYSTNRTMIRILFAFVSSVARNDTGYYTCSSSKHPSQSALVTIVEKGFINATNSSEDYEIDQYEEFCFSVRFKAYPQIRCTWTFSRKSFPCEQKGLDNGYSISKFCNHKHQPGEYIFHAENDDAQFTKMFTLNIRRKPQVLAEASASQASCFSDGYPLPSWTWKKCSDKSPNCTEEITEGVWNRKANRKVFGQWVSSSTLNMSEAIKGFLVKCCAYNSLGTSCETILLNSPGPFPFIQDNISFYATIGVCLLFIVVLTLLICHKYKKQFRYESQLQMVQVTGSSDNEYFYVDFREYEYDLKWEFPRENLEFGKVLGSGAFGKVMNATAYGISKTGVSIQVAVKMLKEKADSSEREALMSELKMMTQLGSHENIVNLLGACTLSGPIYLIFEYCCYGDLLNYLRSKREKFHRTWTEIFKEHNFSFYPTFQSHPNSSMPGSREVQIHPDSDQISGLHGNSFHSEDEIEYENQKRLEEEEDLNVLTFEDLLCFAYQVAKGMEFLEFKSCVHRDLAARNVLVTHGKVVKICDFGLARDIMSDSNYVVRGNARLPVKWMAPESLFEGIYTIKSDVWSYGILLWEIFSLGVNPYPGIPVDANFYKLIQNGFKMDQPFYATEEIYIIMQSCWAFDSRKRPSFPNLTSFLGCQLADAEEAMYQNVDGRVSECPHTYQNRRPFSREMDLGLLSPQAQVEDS

[2] = biological target: T1, Serine/threonine-protein kinase Chk1 (Homo sapiens) (UniProt O14757); assay: Inhibition of human full length CHK1 expressed in baculovirus assessed as substrate phosphorylation using fluorescence-labelled peptides as substrate at 0.06 uM after 90 mins by microfluidic peptide phosphorylation assay
T1 sequence (whole entry): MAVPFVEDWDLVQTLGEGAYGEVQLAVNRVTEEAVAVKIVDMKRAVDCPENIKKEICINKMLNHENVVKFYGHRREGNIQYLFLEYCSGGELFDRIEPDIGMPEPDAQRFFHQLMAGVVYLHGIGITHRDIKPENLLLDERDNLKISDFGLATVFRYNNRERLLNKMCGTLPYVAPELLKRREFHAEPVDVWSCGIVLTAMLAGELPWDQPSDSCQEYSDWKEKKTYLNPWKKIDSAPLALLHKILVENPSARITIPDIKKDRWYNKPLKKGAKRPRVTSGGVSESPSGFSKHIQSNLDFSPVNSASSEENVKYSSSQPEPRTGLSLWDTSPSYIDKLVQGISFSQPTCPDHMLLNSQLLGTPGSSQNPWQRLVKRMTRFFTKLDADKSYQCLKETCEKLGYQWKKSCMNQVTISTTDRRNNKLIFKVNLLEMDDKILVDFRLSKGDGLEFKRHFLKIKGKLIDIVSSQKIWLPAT

[3] = biological target: Protein kinase C alpha type (Homo sapiens) (UniProt P17252); assay: Inhibition of human truncated PKC alpha expressed in baculovirus assessed as substrate phosphorylation using fluorescence-labelled peptides as substrate at 0.2 uM after 90 mins by microfluidic peptide phosphorylation assay
[4] = biological target: Cyclin-dependent kinase 2 (Homo sapiens) (UniProt P24941); assay: Inhibition of human full length CDK2 expressed in baculovirus assessed as substrate phosphorylation using fluorescence-labelled peptides as substrate at 0.2 uM after 90 mins by microfluidic peptide phosphorylation assay
[5] = biological target: T2, Serine/threonine-protein kinase DCLK2 (Homo sapiens) (UniProt Q8N568); assay: Inhibition of human full length DCAMKL2 expressed in baculovirus assessed as substrate phosphorylation using fluorescence-labelled peptides as substrate at 70 uM after 90 mins by microfluidic peptide phosphorylation assay
T2 sequence (whole entry): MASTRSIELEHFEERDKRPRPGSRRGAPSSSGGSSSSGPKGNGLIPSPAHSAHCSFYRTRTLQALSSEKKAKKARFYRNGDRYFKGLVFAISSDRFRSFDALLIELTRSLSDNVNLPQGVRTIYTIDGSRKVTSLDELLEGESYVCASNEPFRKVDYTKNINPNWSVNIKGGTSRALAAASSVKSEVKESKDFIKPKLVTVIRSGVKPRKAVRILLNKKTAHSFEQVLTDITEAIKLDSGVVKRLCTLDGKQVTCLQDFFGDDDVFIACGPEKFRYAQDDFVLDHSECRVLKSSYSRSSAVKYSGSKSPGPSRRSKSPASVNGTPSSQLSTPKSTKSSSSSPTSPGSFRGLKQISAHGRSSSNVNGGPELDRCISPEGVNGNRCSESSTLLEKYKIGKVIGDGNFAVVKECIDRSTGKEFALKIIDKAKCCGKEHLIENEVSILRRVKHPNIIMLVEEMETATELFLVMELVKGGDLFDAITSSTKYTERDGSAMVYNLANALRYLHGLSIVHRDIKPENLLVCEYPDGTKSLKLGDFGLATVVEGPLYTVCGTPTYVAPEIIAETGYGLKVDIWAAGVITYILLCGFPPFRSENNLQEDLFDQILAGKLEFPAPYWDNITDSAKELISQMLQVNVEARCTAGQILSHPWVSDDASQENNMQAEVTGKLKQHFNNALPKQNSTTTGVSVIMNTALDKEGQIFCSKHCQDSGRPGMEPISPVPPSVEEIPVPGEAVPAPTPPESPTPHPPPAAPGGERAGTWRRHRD

[6] = biological target: Fibroblast growth factor receptor 2 (Homo sapiens) (UniProt P21802); assay: Inhibition of human FGFR2 catalytic domain expressed in baculovirus assessed as substrate phosphorylation using fluorescence-labelled peptides as substrate at 95 uM after 90 mins by microfluidic peptide phosphorylation assay
Chain of Fibroblast growth factor receptor 2 (Homo sapiens) (P21802 22-821 limits assumed): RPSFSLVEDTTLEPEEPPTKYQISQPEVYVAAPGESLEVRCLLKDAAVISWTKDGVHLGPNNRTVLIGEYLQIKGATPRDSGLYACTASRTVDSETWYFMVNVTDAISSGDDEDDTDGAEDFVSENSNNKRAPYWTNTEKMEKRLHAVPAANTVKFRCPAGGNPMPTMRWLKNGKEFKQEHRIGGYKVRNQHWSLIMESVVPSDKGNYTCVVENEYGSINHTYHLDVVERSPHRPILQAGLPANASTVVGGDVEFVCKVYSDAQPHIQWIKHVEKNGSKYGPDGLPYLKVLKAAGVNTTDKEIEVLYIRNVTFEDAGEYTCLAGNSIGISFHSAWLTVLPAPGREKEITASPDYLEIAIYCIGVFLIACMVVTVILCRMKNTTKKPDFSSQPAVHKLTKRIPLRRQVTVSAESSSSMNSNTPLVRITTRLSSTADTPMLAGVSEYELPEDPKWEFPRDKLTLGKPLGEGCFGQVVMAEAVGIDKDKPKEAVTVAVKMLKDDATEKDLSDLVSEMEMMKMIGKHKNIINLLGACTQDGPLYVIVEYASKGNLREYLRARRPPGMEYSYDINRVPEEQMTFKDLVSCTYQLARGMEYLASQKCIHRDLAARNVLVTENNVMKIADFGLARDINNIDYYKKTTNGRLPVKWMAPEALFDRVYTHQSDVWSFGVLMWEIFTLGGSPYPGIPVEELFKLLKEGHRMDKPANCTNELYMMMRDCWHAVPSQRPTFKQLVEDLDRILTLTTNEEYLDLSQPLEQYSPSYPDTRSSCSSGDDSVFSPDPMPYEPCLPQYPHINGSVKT

[7] = biological target: T3, Protein kinase C epsilon type (Homo sapiens) (UniProt Q02156); assay: Inhibition of human truncated PKC epsilon expressed in baculovirus assessed as substrate phosphorylation using fluorescence-labelled peptides as substrate at 8 uM after 90 mins by microfluidic peptide phosphorylation assay
T3 sequence (whole entry): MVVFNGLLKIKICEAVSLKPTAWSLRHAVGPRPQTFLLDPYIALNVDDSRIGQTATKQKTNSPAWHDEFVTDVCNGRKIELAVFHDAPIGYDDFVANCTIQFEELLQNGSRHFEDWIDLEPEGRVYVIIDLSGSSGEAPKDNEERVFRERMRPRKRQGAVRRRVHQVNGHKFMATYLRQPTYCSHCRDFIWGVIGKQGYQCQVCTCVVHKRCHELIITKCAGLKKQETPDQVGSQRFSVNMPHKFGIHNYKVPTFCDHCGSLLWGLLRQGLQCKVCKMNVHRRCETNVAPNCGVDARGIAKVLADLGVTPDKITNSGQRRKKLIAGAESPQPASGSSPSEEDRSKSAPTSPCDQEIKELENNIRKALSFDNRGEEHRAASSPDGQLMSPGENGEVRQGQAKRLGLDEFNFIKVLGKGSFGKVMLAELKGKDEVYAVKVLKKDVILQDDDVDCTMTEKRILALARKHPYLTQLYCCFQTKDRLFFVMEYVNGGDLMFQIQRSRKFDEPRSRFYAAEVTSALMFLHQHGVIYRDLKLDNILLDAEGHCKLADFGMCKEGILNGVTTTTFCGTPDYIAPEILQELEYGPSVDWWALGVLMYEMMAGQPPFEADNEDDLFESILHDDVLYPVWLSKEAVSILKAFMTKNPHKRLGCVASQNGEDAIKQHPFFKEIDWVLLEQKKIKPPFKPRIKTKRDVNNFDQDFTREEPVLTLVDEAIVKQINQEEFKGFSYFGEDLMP

[8] = biological target: Mitogen-activated protein kinase 14 (Homo sapiens) (UniProt Q16539); assay: Inhibition of human truncated p38 alpha expressed in Escherichia coli cell assessed as substrate phosphorylation using fluorescence-labelled peptides as substrate at 2 uM after 90 mins by microfluidic peptide phosphorylation assay
Chain of Mitogen-activated protein kinase 14 (Homo sapiens) (Q16539 whole entry, the tested form may be a part): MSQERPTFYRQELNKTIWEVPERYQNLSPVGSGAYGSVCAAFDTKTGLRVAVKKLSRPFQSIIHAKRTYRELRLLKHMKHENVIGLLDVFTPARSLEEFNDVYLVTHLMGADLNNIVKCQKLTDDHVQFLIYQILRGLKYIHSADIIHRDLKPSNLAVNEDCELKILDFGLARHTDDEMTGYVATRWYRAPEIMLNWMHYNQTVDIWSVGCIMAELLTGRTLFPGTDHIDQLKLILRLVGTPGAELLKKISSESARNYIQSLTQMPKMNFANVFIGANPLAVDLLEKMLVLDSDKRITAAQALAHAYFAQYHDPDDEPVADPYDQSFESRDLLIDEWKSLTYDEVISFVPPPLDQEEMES

[9] = biological target: Mitogen-activated protein kinase 3 (Homo sapiens) (UniProt P27361); assay: Inhibition of human full length ERK1 expressed in Escherichia coli cell assessed as substrate phosphorylation using fluorescence-labelled peptides as substrate at 2 uM after 90 mins by microfluidic peptide phosphorylation assay
Chain of Mitogen-activated protein kinase 3 (Homo sapiens) (P27361 whole entry): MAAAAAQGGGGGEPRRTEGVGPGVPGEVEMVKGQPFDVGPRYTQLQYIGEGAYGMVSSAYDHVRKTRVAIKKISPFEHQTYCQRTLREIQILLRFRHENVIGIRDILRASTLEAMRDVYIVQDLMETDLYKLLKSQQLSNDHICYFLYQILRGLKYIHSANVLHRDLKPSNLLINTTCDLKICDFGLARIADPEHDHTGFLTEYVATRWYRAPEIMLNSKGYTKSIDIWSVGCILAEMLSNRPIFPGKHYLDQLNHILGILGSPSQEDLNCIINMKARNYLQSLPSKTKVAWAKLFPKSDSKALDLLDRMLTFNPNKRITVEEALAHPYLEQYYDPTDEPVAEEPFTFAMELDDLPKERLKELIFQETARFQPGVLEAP

[10] = biological target: Aurora kinase B (Homo sapiens) (UniProt Q96GD4); assay: Inhibition of human full length AurB expressed in baculovirus assessed as substrate phosphorylation using fluorescence-labelled peptides as substrate at 2 uM after 90 mins by microfluidic peptide phosphorylation assay
Chain of Aurora kinase B (Homo sapiens) (Q96GD4 whole entry): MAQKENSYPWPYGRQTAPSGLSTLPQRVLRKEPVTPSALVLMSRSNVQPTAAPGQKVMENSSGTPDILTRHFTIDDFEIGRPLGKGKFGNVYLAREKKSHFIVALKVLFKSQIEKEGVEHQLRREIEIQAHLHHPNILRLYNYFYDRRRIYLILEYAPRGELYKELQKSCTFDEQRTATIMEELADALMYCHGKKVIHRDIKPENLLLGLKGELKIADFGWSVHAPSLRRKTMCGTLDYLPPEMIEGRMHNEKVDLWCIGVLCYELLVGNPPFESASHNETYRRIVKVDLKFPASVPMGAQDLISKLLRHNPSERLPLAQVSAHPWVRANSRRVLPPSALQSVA

## NC1(Cc2ccc(Cl)cc2)CCN(c2ncnc3[nH]ccc23)CC1
[1]
  inhibition: 0%
[2]
  inhibition: 0%

## Clc1ccc(C2(c3ccc(-c4ncnc5[nH]cnc45)cc3)CCNCC2)cc1
[3]
  inhibition: 77.5%
[4]
  inhibition: 7.5%

## CNCc1ccc(-c2ncnc3[nH]cnc23)cc1
[5]
  inhibition: 20.5%

## NCCc1ccc(-c2ncnc3[nH]cnc23)cc1
[6]
  inhibition: 36%

## NCC1CCN(c2ncnc3[nH]ccc23)CC1
[7]
  inhibition: 34%

## NC1CCN(c2ncnc3[nH]ccc23)CC1
[8]
  inhibition: 2%
[9]
  inhibition: 1%
[10]
  inhibition: 34%
